Experimental findings from patent US20140024662A1, “COMPOUNDS, SCREENS, AND METHODS OF TREATMENT” (Shanghai Institute of Organic Chemistry, priority 2006, published 2014) are described below.

The assay deals with FADD-deficient Jurkat cells. Nature of the assay: necroptosis assay: FADD-deficient Jurkat cells treated with TNFα, cell viability. Type of assay: cell-based, human. The settings on record: for EC50: effective concentration for half-maximum response, inhibition of necroptosis in FADD-deficient Jurkat cells treated with TNFα; for activity in the necroptosis assay, in words / Max Prot: FADD-deficient Jurkat cells treated with TNFα; for Max Prot: max viability obtained in the presence of a compound. From the text:
Herein we describe the structure activity analysis of Nec-5 analogs.

“Also recorded” adds a separate entry of the source. Read-outs that look alike come from different tables or passages of the source.

Turning to `CSc1nc2sc3c(c2c(=O)n1-c1ccc2c(c1)OCO2)CCCC3` [Compound 59], the EC50 (as a rule, the concentration giving half of the maximal effect) is “inactive”.

For the compound `CSc1cccc(-n2c(SC)nc3sc4c(c3c2=O)CCCC4)c1` [Compound 60], the EC50 result is “inactive”. Still for that read-out and setting: in the case of `CSc1nc2sc3c(c2c(=O)n1-c1ccc(Cl)cc1C)CCCC3` [Compound 61] it was “inactive”; in that of `CSc1nc2sc3c(c2c(=O)n1-c1ccc(OC(F)(F)F)cc1)CCCC3` [Compound 62], “inactive”. For `COc1ccc(-n2c(SCC#N)nc3sc(C)cc3c2=O)cc1` [Compound 64], the EC50 result is “inactive”. The same measure, in the same setting: to `CCc1cc2c(=O)n(-c3ccc(OC)cc3)c(SCC#N)nc2s1` [Compound 65] belongs “inactive”. Still for that read-out and setting: to `COc1ccc(-n2c(SCC#N)nc3scc(C)c3c2=O)cc1` [Compound 66] belongs “inactive”.

With `COc1ccc(-n2c(SCC#N)nc3sc(C)c(C)c3c2=O)cc1` [Compound 67], the “activity in the necroptosis assay, in words” value (shortened to “activity”) is given as “a high degree of activity is retained; also recorded: showed substantial activity; also recorded: showed significant higher activity compared to compound (154)” and the “Max Prot” value is listed as 100%. Further, the EC50 (read-out: EC50) came to 0.45 µM. For `CCc1sc2nc(SCC#N)n(-c3ccc(OC)cc3)c(=O)c2c1C` [Compound 68], the “Max Prot” value came to 86.8%. Besides, the EC50 (read-out: EC50) was found to be 5.26 µM. As to `CCCc1sc2nc(SCC#N)n(-c3ccc(OC)cc3)c(=O)c2c1C` [Compound 69], the “activity” value was “inactive” and the EC50 result is “inactive”. Regarding `COc1ccc(-n2c(SCC#N)nc3sc(C(C)C)c(C)c3c2=O)cc1` [Compound 70], the “activity” value was “inactive” and the EC50 result was “inactive”.

For the compound `CCCCCCCCCCCCCCc1sc2nc(SCC#N)n(-c3ccc(OC)cc3)c(=O)c2c1C` [Compound 71], the EC50 result is “inactive”. Take `CCc1c(C)sc2nc(SCC#N)n(-c3ccc(OC)cc3)c(=O)c12` [Compound 72]: the “activity” value is “preserved activity to a significant extent” and the “Max Prot” value was 100%. Moreover, the EC50 (read-out: EC50) came to 1.08 µM. As to `COc1ccc(-n2c(SCC#N)nc3sc4c(c3c2=O)CCC4)cc1` [Compound 73], the “activity” value is reported as “retained most of the activity; also recorded: showed activity; also recorded: exhibited a certain degree of activity” and the “Max Prot” value is recorded as 100%. Besides, the EC50 (read-out: EC50) was found to be 0.45 µM. The matching figures for `COc1ccc(-n2c(SCC#N)nc3sc4c(c3c2=O)CCCCC4)cc1` [Compound 74]: “less active; also recorded: exhibited a certain degree of activity”, 83% and 0.96 µM.

Regarding `COc1ccc(-n2c(SCC#N)nc3sc4ccccc4c3c2=O)cc1` [Compound 76], the “activity” value is on record as “retained most of the activity; also recorded: showed substantial activity; also recorded: showed good activity; also recorded: potent inhibitor; also recorded: exhibited a certain degree of activity” and the “Max Prot” value is 83.3%. Moreover, under “read-out: EC50”, the EC50 is 0.18 µM. For the compound `CCN1CCc2c(sc3nc(SCC#N)n(-c4ccc(OC)cc4)c(=O)c23)C1` [Compound 77], the “activity” value was “essentially inactive” and the EC50 entry is “inactive”. On the same counts, the results for `COc1ccc(-n2c(SCC#N)nc3sc4c(c3c2=O)CCN(C(C)C)C4)cc1` [Compound 78] are “essentially inactive” and “inactive”. As to `COc1ccc(-n2c(SC)nc3sccc3c2=O)cc1` [Compound 79], the concentration giving a half-maximal response (EC50) entry was “inactive”. As to `COc1ccc(-n2c(SC)nc3scc(C)c3c2=O)cc1` [Compound 80], the EC50 entry was “inactive”. As to `COc1ccc(-n2c(SC)nc3sc(C)c(C)c3c2=O)cc1` [Compound 81], the EC50 result is “inactive”. With `CCc1c(C)sc2nc(SC)n(-c3ccc(OC)cc3)c(=O)c12` [Compound 82], the EC50 result is “inactive”. In the case of `CCc1sc2nc(SC)n(-c3ccc(OC)cc3)c(=O)c2c1C` [Compound 83], the EC50 result was “inactive”. The same measure, in the same setting: in the case of `CCCc1sc2nc(SC)n(-c3ccc(OC)cc3)c(=O)c2c1C` [Compound 84] it was “inactive”.

In the case of `COc1ccc(-n2c(SC)nc3sc(C(C)C)c(C)c3c2=O)cc1` [Compound 85], the EC50 entry is “inactive”.

On to `CCCCCCCCCCCCCCc1sc2nc(SC)n(-c3ccc(OC)cc3)c(=O)c2c1C` [Compound 86], for which the EC50 entry was “inactive”. With `COc1ccc(-n2c(SC)nc3sc4c(c3c2=O)CCC4)cc1` [Compound 87], the “activity” value was “displayed higher activity than each change separately enacted” and the “Max Prot” value was determined as 97.0%. For the same compound, where the note is “read-out: EC50”, the EC50 came out at 0.24 µM. `COc1ccc(-n2c(SC)nc3sc4c(c3c2=O)CCCCC4)cc1` [Compound 88]: the “activity” value is “lack of activity” and the EC50 result was “inactive”. With `COc1ccc(-n2c(SC)nc3sc4ccccc4c3c2=O)cc1` [Compound 90], the “activity” value is on record as “potent inhibitor” and the “Max Prot” value was determined as 77%. Further, the EC50 (read-out: EC50) was 0.24 µM.

Take `CCN1CCc2c(sc3nc(SC)n(-c4ccc(OC)cc4)c(=O)c23)C1` [Compound 91]: the EC50 entry is “inactive”. Regarding `COc1ccc(-n2c(SC)nc3sc4c(c3c2=O)CCN(C(C)C)C4)cc1` [Compound 92], the EC50 entry was “inactive”. For the compound `CCSc1nc2sc3c(c2c(=O)n1-c1ccc(OC)cc1)CCC3` [Compound 93], the EC50 entry is “inactive”. Same read-out and setting: in the case of `CCCSc1nc2sc3c(c2c(=O)n1-c1ccc(OC)cc1)CCC3` [Compound 94] it was “inactive”. The same measure, in the same setting: in the case of `CCCCSc1nc2sc3c(c2c(=O)n1-c1ccc(OC)cc1)CCC3` [Compound 95] it was “inactive”; in that of `CCCCCSc1nc2sc3c(c2c(=O)n1-c1ccc(OC)cc1)CCC3` [Compound 96], “inactive”; in that of `C=CCSc1nc2sc3c(c2c(=O)n1-c1ccc(OC)cc1)CCC3` [Compound 97], “inactive”.

Regarding `C#CCSc1nc2sc3c(c2c(=O)n1-c1ccc(OC)cc1)CCC3` [Compound 98], the “Max Prot” value worked out at 63.4%. Further, the EC50 (read-out: EC50) amounted to 2.49 µM. On to `COc1ccc(-n2c(SCc3ccccc3)nc3sc4c(c3c2=O)CCC4)cc1` [Compound 99], for which the concentration for a half-maximal effect (EC50) entry was “inactive”. Consider `COc1ccc(-n2c(SCc3ccc([N+](=O)[O-])cc3)nc3sc4c(c3c2=O)CCC4)cc1` [Compound 100], for which the EC50 entry was “inactive”.

On to `COc1ccc(-n2c(SCC(C)=O)nc3sc4c(c3c2=O)CCC4)cc1` [Compound 101], for which the EC50 entry was “inactive”. Still for that read-out and setting: to `COc1ccc(-n2c(SC[N+](=O)[O-])nc3sc4c(c3c2=O)CCC4)cc1` [Compound 102] belongs “inactive”. On to `COc1ccc(-n2c(SCCO)nc3sc4c(c3c2=O)CCC4)cc1` [Compound 103], for which the “Max Prot” value is on record as 100%. The EC50 (read-out: EC50) was found to be 7.14 µM. In the case of `C#CCSc1nc2sccc2c(=O)n1-c1ccc(OC)cc1` [Compound 104], the EC50 entry is “inactive”. In the case of `C#CCSc1nc2scc(C)c2c(=O)n1-c1ccc(OC)cc1` [Compound 105], the EC50 result is “inactive”. As to `C#CCSc1nc2sc(C)c(C)c2c(=O)n1-c1ccc(OC)cc1` [Compound 106], the “activity” value was “possess some activity” and the “Max Prot” value is given as 90.3%. For the same compound, the EC50 (read-out: EC50) was 4.86 µM. `C#CCSc1nc2sc(CC)c(C)c2c(=O)n1-c1ccc(OC)cc1` [Compound 107]: the concentration giving a half-maximal response (EC50) result was “inactive”. `C#CCSc1nc2sc(CCC)c(C)c2c(=O)n1-c1ccc(OC)cc1` [Compound 108]: the EC50 entry is “inactive”. On the same count and under the same terms, to `C#CCSc1nc2sc3c(c2c(=O)n1-c1ccc(OC)cc1)CCCCC3` [Compound 109] belongs “inactive”. Regarding `CCSc1nc2sc(C)c(C)c2c(=O)n1-c1ccc(OC)cc1` [Compound 110], the “activity” value was “inactive” and the EC50 entry is “inactive”.

`CCSc1nc2sc(CC)c(C)c2c(=O)n1-c1ccc(OC)cc1` [Compound 111]: the EC50 result was “inactive”.

On to `CCSc1nc2sc3c(c2c(=O)n1-c1ccc(OC)cc1)CCCCC3` [Compound 112], for which the EC50 result is “inactive”.

As to `COc1ccc(-n2c(SCCC#N)nc3sc(C)c(C)c3c2=O)cc1` [Compound 113], the EC50 result is “inactive”. As for `COc1ccc(-n2c(SCCO)nc3sc(C)c(C)c3c2=O)cc1` [Compound 114], the “activity” value was “possess some activity” and the “Max Prot” value turned out to be 78%. In addition, the EC50 (read-out: EC50) turned out to be 7.26 µM. Turning to `CCc1sc2nc(SCCO)n(-c3ccc(OC)cc3)c(=O)c2c1C` [Compound 115], the EC50 result was “inactive”. Same read-out and setting: to `CCCc1sc2nc(SCCO)n(-c3ccc(OC)cc3)c(=O)c2c1C` [Compound 116] belongs “inactive”; to `CCCc1sc2nc(SCC)n(-c3ccc(OC)cc3)c(=O)c2c1C` [Compound 117], “inactive”; to `COc1ccc(-n2c(SCC(=O)O)nc3sc(C)c(C)c3c2=O)cc1` [Compound 118], “inactive”.

As for `Cc1sc2nc(SCC#N)n(-c3ccc(F)cc3)c(=O)c2c1C` [Compound 119], the “Max Prot” value was 87.6%. Moreover, the EC50 (read-out: EC50) amounted to 4.43 µM. For the compound `CCc1sc2nc(SCC#N)n(-c3ccc(F)cc3)c(=O)c2c1C` [Compound 120], the EC50 entry was “inactive”. Consider `N#CCSc1nc2sc3c(c2c(=O)n1-c1ccc(F)cc1)CCC3` [Compound 121], for which the “Max Prot” value amounted to 88.7%. Besides, the half-maximal effective concentration (EC50) (read-out: EC50) worked out at 0.89 µM. For `N#CCSc1nc2sc3c(c2c(=O)n1-c1ccc(F)cc1)CCCCC3` [Compound 122], the “activity” value is recorded as “completely lacked activity” and the EC50 result was “inactive”.
